“And” between values parts separate entries of the source, which are not always exact repeats. Identical values can stand only once. Toxic doses and inconclusive results are not listed. How the source made its calls: active means survival T/C of 150% or more; inactive means T/C below 125% in these data.
System: P388 leukemia ip, CD2F1 mice, survival T/C
Test: NCI In Vivo Anticancer Drug Screen. Data for tumor model P388 Leukemia (intraperitoneal) in CD2F1 (CDF1) mice
Conditions: endpoint: median survival time, higher = longer survival
Procedure, shortened: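 Mice carrying the transplanted tumor received test compound or vehicle. Survival was recorded in each group, and the value is the treated-group measurement divided by that of the vehicle-treated control group.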

[1] = dose: 60.0 mg/kg/injection, schedule: Q01DX005 (ip), vehicle: Klucel (hydroxypropylcellulose) (HPC)
[2] = dose: 120.0 mg/kg/injection, schedule: Q01DX005 (ip), vehicle: Klucel (hydroxypropylcellulose) (HPC)
[3] = dose: 240.0 mg/kg/injection, schedule: Q01DX005 (ip), vehicle: Klucel (hydroxypropylcellulose) (HPC)
[4] = dose: 50.0 mg/kg/injection, schedule: Q01DX009 (ip), vehicle: saline
[5] = dose: 100.0 mg/kg/injection, schedule: Q01DX009 (ip), vehicle: saline
[6] = dose: 200.0 mg/kg/injection, schedule: Q01DX009 (ip), vehicle: saline
[7] = dose: 25.0 mg/kg/injection, schedule: Q04DX002 (ip), vehicle: saline with Tween-80
[8] = dose: 25.0 mg/kg/injection, schedule: Q04DX003 (ip), vehicle: saline with Tween-80
[9] = dose: 50.0 mg/kg/injection, schedule: Q01DX005 (ip), vehicle: saline with Tween-80
[10] = dose: 50.0 mg/kg/injection, schedule: Q04DX002 (ip), vehicle: saline with Tween-80
[11] = dose: 50.0 mg/kg/injection, schedule: Q04DX003 (ip), vehicle: saline with Tween-80
[12] = dose: 100.0 mg/kg/injection, schedule: Q04DX002 (ip), vehicle: saline with Tween-80
[13] = dose: 12.5 mg/kg/injection, schedule: Q04DX003 (ip), vehicle: saline
[14] = dose: 25.0 mg/kg/injection, schedule: Q04DX003 (ip), vehicle: saline
[15] = dose: 50.0 mg/kg/injection, schedule: Q04DX003 (ip), vehicle: saline
[16] = dose: 100.0 mg/kg/injection, schedule: Q04DX003 (ip), vehicle: saline with Tween-80
[17] = dose: 200.0 mg/kg/injection, schedule: Q04DX003 (ip), vehicle: saline with Tween-80
[18] = dose: 50.0 mg/kg/injection, schedule: Q01DX009 (ip), vehicle: Klucel (hydroxypropylcellulose) (HPC)
[19] = dose: 100.0 mg/kg/injection, schedule: Q01DX009 (ip), vehicle: Klucel (hydroxypropylcellulose) (HPC)
[20] = dose: 25.0 mg/kg/injection, schedule: Q01DX009 (ip), vehicle: saline

Measured: T/C

CCCCC(/C=N/NC(N)=S)C(=O)OCC (stereo not drawn)
inactive: [1] 102 % of control | [2] 100 % of control | [3] 100 % of control

CN1C2CCC1C(CCl)C(O)C2 (stereo not drawn)
inactive: [4] 92 % of control | [5] 88 % of control | [6] 88 % of control

CC(=O)CC(=O)c1ccc(C)cc1.CC(=O)CC(=O)c1ccc(C)cc1.[Ni]
inactive: dose: 3.12 mg/kg/injection, schedule: Q01DX005 (ip), vehicle: saline with Tween-80 97 % of control | dose: 6.25 mg/kg/injection, schedule: Q01DX005 (ip), vehicle: saline with Tween-80 95 % of control | dose: 12.5 mg/kg/injection, schedule: Q01DX005 (ip), vehicle: saline with Tween-80 90 % of control | [7] 95 % of control | [8] 97 % of control | [9] 91 % of control | [10] 99 % of control | [11] 101 % of control | [12] 105 % of control | dose: 200.0 mg/kg/injection, schedule: Q04DX002 (ip), vehicle: saline with Tween-80 98 % of control

c1ccc(-c2nn(-c3ccccc3)[n+](-c3ccccc3)n2)cc1
inactive: dose: 1.25 mg/kg/injection, schedule: Q01DX009 (ip), vehicle: saline with Tween-80 100 % of control | dose: 2.5 mg/kg/injection, schedule: Q01DX009 (ip), vehicle: saline with Tween-80 90 % of control

Nc1ncnc2c1ccn2CC(O)CO (stereo not drawn)
inactive: dose: 50.0 mg/kg/injection, schedule: Q01DX005 (ip), vehicle: distilled water + alcohol 101 % of control | dose: 100.0 mg/kg/injection, schedule: Q01DX005 (ip), vehicle: distilled water + alcohol 100 % of control | dose: 200.0 mg/kg/injection, schedule: Q01DX005 (ip), vehicle: distilled water + alcohol 101 % of control

CCOC(=O)C(CC)/C(C)=N\NC(N)=S (stereo not drawn)
inactive: [1] 100 % of control | [2] 101 % of control | [3] 99 % of control

O=S(=O)(c1ccccc1)[C@H]1[C@@H]2O[C@@H]2C[C@@H]1O
inactive: dose: 60.0 mg/kg/injection, schedule: Q01DX005 (ip), vehicle: saline 104 % of control | dose: 120.0 mg/kg/injection, schedule: Q01DX005 (ip), vehicle: saline 103 % of control | dose: 240.0 mg/kg/injection, schedule: Q01DX005 (ip), vehicle: saline 98 % of control

CCC1=CC2CN3CCc4c([nH]c5ccccc45)C(C(=O)OC)(C2)C13 (stereo not drawn)
inactive: [9] 105 % of control | dose: 100.0 mg/kg/injection, schedule: Q01DX005 (ip), vehicle: saline with Tween-80 108 % of control

C=CCN(CC=C)CCN1CCN(CCCN2c3ccccc3Sc3ccc(C(F)(F)F)cc32)CC1
inactive: [13] 101 % of control and 103 % of control | [14] 111 % of control and 112 % of control | [15] 104 % of control and 107 % of control | dose: 100.0 mg/kg/injection, schedule: Q04DX003 (ip), vehicle: saline 100 % of control and 102 % of control

COc1cc(C#N)cc(OC)c1
inactive: [8] 109 % of control | [11] 100 % of control | [16] 100 % of control | [17] 100 % of control

CC(=O)c1c(C)oc(C)c1-c1ccc2c(c1)OCO2
inactive: [1] 108 % of control | [2] 103 % of control | [3] 104 % of control

CC1(C)OC2(CC1C1(C)C=CC(=O)O1)CC1C(O)(CCC34CC13C(=O)OC4c1ccoc1)O2 (stereo not drawn)
inactive: [4] 100 % of control | [5] 95 % of control | [6] 104 % of control

CSc1c2c(c(C)c3c1[nH]c1ccccc13)C=NCC2
inactive: dose: 6.25 mg/kg/injection, schedule: Q04DX002 (ip), vehicle: distilled water + Tween-80 102 % of control | dose: 12.5 mg/kg/injection, schedule: Q04DX002 (ip), vehicle: distilled water + Tween-80 89 % of control | dose: 25.0 mg/kg/injection, schedule: Q04DX002 (ip), vehicle: distilled water + Tween-80 98 % of control | dose: 50.0 mg/kg/injection, schedule: Q04DX002 (ip), vehicle: distilled water + Tween-80 88 % of control | dose: 100.0 mg/kg/injection, schedule: Q04DX002 (ip), vehicle: distilled water + Tween-80 88 % of control

Cc1ccc([N+](=O)[O-])cc1NC(=O)NNC(=O)CNC(=O)Nc1cccc(C(F)(F)F)c1
inactive: dose: 60.0 mg/kg/injection, schedule: Q01DX005 (ip), vehicle: saline with Tween-80 95 % of control | dose: 120.0 mg/kg/injection, schedule: Q01DX005 (ip), vehicle: saline with Tween-80 96 % of control | dose: 240.0 mg/kg/injection, schedule: Q01DX005 (ip), vehicle: saline with Tween-80 100 % of control

CCOc1ccc(N2C(=O)C(=O)C(C(C)=O)C2=O)cc1 (stereo not drawn)
inactive: [18] 108 % of control | [19] 106 % of control | dose: 200.0 mg/kg/injection, schedule: Q01DX009 (ip), vehicle: Klucel (hydroxypropylcellulose) (HPC) 100 % of control

COc1ccc2c(c1)CCCC(Br)C2=O (stereo not drawn)
inactive: dose: 25.0 mg/kg/injection, schedule: Q01DX009 (ip), vehicle: distilled water + alcohol 107 % of control | dose: 50.0 mg/kg/injection, schedule: Q01DX009 (ip), vehicle: distilled water + alcohol 105 % of control | dose: 100.0 mg/kg/injection, schedule: Q01DX009 (ip), vehicle: distilled water + alcohol 120 % of control | dose: 200.0 mg/kg/injection, schedule: Q01DX009 (ip), vehicle: distilled water + alcohol 122 % of control

CS(=O)(=O)OCCCCC/C=C/CCCCCCC1C=CCC1 (stereo not drawn)
inactive: dose: 100.0 mg/kg/injection, schedule: Q01DX001 (ip), vehicle: saline 98 % of control | dose: 200.0 mg/kg/injection, schedule: Q01DX001 (ip), vehicle: saline 99 % of control | dose: 400.0 mg/kg/injection, schedule: Q01DX001 (ip), vehicle: saline 100 % of control

COc1cccc2c1C(=O)c1c(O)c3c(c(O)c1C2=O)C[C@@](O)(C(C)=O)CC3OC1CC(NC(=O)CCCN)C(O)C(C)O1 (stereo partly drawn)
inactive: dose: 6.25 mg/kg/injection, schedule: Q04DX003 (ip), vehicle: saline 98 % of control | [13] 97 % of control | [14] 100 % of control | [15] 104 % of control

N=C(N)c1ccc(N=Nc2cc(/C=C/c3ccccc3)ccc2O)cc1
inactive: dose: 50.0 mg/kg/injection, schedule: Q01DX005 (ip), vehicle: Klucel (hydroxypropylcellulose) (HPC) 110 % of control | dose: 100.0 mg/kg/injection, schedule: Q01DX005 (ip), vehicle: Klucel (hydroxypropylcellulose) (HPC) 92 % of control

C[Se]C(C)(C)C(O)(Cc1ccccc1)c1ccccc1 (stereo not drawn)
inactive: [7] 88 % of control | [10] 94 % of control | [12] 101 % of control

CC[N+]1(C)CCCCC1
inactive: dose: 6.25 mg/kg/injection, schedule: Q01DX009 (ip), vehicle: saline 107 % of control | dose: 12.5 mg/kg/injection, schedule: Q01DX009 (ip), vehicle: saline 103 % of control | [20] 97 % of control | [4] 97 % of control

O=C1CCCCCCCCCCC1C(O)(C(F)(F)F)C(F)(F)F (stereo not drawn)
inactive: [16] 100 % of control | [17] 90 % of control | dose: 400.0 mg/kg/injection, schedule: Q04DX003 (ip), vehicle: saline with Tween-80 100 % of control

Brc1cc2cccnc2c2ccccc12
inactive: dose: 100.0 mg/kg/injection, schedule: Q01DX001 (ip), vehicle: Klucel (hydroxypropylcellulose) (HPC) 98 % of control | dose: 200.0 mg/kg/injection, schedule: Q01DX001 (ip), vehicle: Klucel (hydroxypropylcellulose) (HPC) 94 % of control | dose: 400.0 mg/kg/injection, schedule: Q01DX001 (ip), vehicle: Klucel (hydroxypropylcellulose) (HPC) 97 % of control

CCN(CC)CCOC(=O)C(c1ccccc1)C(C)(O)CC (stereo not drawn)
inactive: [20] 105 % of control | [4] 100 % of control | [5] 115 % of control

CC(C)(Cc1ccccc1)C(=C=C=C=C(c1ccccc1)C(C)(C)Cc1ccccc1)c1ccccc1
inactive: dose: 25.0 mg/kg/injection, schedule: Q01DX009 (ip), vehicle: Klucel (hydroxypropylcellulose) (HPC) 101 % of control | [18] 99 % of control | [19] 92 % of control

CCCCCCCCCCCC(=O)OC1CCC2(C)C(=CCC3C2CCC2(C)C(C(C)/C=C/C(CC)C(C)C)CCC32)C1 (stereo not drawn)
inactive: dose: 100.0 mg/kg/injection, schedule: Q04DX003 (ip), vehicle: other 102 % of control | dose: 200.0 mg/kg/injection, schedule: Q04DX003 (ip), vehicle: other 102 % of control
